Experimental data taken from US9249116B2, “Enzyme-activating compounds and compositions” (The Board of Trustees of the University of Illinois, priority 2012, dated 2016).
Read-outs that look alike come from different tables or passages of the source.

Columns and labels:
procaspase-3 = target: T1, procaspase-3 (Homo sapiens, UniProt P42574); experiment: Procaspase-3 activity assay (relief of zinc-mediated inhibition, Ac-DEVD-pNA cleavage); assay type: biochemical; settings: procaspase-3 incubated with […] ZnSO4; method gives compounds at 25 μM
T1 construct: 6xHis (C); made in house; host or cells: Rosetta E. coli
T1 sequence (P42574 1-277): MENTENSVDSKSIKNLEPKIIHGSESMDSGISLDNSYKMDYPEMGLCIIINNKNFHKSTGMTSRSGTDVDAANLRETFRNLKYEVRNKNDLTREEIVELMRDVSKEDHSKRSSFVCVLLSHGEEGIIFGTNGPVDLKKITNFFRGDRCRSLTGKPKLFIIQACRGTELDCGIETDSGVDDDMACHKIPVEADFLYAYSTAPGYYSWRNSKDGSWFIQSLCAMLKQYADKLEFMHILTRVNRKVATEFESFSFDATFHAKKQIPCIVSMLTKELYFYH
Description: The six confirmed hits were then evaluated in vitro for their ability to relieve zinc-mediated inhibition of procaspase-3 (Table A). In this experiment, procaspase-3 was incubated with ZnSO4, conditions in which procaspase-3 has no enzymatic activity.
Techniques adapted from Hergenrother and coworkers (Putt et al., Nat Chem Biol 2006, 2, 543-550). A 20 mL volume of an overnight culture of Rosetta E. coli containing the procaspase-3 (wild-type) expression plasmid was seeded into 2 L of LB media containing ampicillin. The culture was grown to an OD600=1.0, at which point protein expression was induced via addition of IPTG (to 1 mM); the culture was allowed to grow for 30 additional minutes. Cells were then harvested (10 minute spins at 10,000×g and re-suspended in NTA binding buffer (300 mM NaCl, 50 mM Tris, 10 mM imidazole, pH 8.0). The cells were lysed on ice via sonication. The cell lysate was then spun at 35,000×g for […] The supernatant was decanted and 1 mL of nickel-NTA resin was added. The cell lysate was incubated for 45 minutes at 4° C. The resin was loaded on a column, washed with 10 mL NTA binding buffer followed by 10 mL NTA wash buffer (300 mM NaCl, 50 mM Tris, 50 mM imidazole, pH 8.0). The proteins were eluted in 0.5 mL fractions with 10 mL of NTA elution buffer (300 mM NaCl, 50 mM Tris, 500 mM imidazole, pH 8.0). Fractions containing protein were pooled and further purified to remove any contaminating zinc by applying the protein to a PD-10 column (GE Healthcare) charged with Caspase Activity Buffer that had been treated with Chelex® resin. The resulting concentration was determined using the Edelhoch method and the molar absorptivity of procaspase-3 of 26150 M^−1 cm^−1. Protein stocks were flash-frozen in liquid nitrogen and stored at −80° C.
In a 384-well plate recombinantly expressed, zinc-free procaspase-3 (wild type, at 1 μM) in Caspase Activity Buffer (50 mM HEPES, 300 mM NaCl, 1.5 mM TCEP, 0.01% TritonX-100) was incubated at 37° C. in the presence of 3.5 μM ZnSO4 and the basal activity was assessed via the addition of Ac-DEVD-pNA (final concentration in well of 200 μM). The absorbance at 405 nm was monitored with a SpectraMax plate reader (Molecular Devices). […] Activity of each treatment was assessed at 5, 20, 40 and 60 minutes via 5-minute kinetic reads. The slope of each data set was used to determine the activity of the protein. Activity was normalized to a percent activity at each time point using a zinc-free sample and a zinc-inhibited sample treated with DMSO.

[1] = test system: U-937 cells (human lymphoma); experiment: 72 Hour IC50 cell death assay (sulforhodamine B); assay type: cell-based
Description: After the synthesis was complete, the biological activity of the compounds was evaluated.
U-937 human lymphoma cells were plated into the wells of 96 well plate at a density of 15,000 cells per well in 99 μL of RPMI 1640 growth media with 10% FBS and 1% pen-strep. To each well was added 1 μL of compound stock solutions in DMSO at varying concentrations such that the cells were treated with concentrations between 0 μM and 100 μM compound. Each concentration was tested in quintuplicate per plate. In each plate 5 wells received 20 μM doxorubicin as a positive death control and 5 wells received 1 μL of DMSO as a negative control.
After the 72 hour incubation period, the plates were analyzed using a Sulforhodamine B assay (Vichai and Kirtikara, Nat Protoc 2006, 1, 1112-1116). Specifically, to each well of the plate 25 μL of a 50% (w/v) solution of trichloroacetic acid in H2O was added and the plates were incubated for 4 hours at 4° C. The plates were then washed gently with water five times. The plates were allowed to air dry after which 100 μL of a 0.057% (w/v) Sulforhodamine B in a 1% (v/v) acetic acid solution was added to each well for 30 minutes at room temperature. The plates were gently washed 5 times with 1% (v/v) acetic acid and air dried. 200 μL of 10 mM Tris base (pH 10.4) was added to each well and the plates were placed on an orbital shaker for thirty minutes. The level of SRB was quantified fluorometrically at excitation and emission wavelengths 488 and 585 nm, respectively, on a Molecular Devices plate reader and the percent cell death calculated and normalized to the positive control (100% cell death) and the negative control (0% cell death). The percent cell death was averaged for each compound concentration and plotted as a function of compound concentration. The data were fit to a logistical dose response curve using Table curve 2D and the IC50 value was calculated. The experiment was repeated three times and the average of the calculated IC50 values was reported. The standard error of the mean (SEM) was determined and reported for the triplicate experiments.

[2] = Liver microsome stability assay; assay type: in vitro ADME; settings: rat liver microsomes, 10 μM, LC/MS
Description: FIG. 4. Liver Microsome Stability Assay. Compounds (10 μM) incubated with liver microsomes for 3 h and quenched with MeCN containing internal standard, analyzed by LC/MS (280 nm). Next, the metabolic stability of the compounds was evaluated in rat liver microsomes. The compounds were evaluated for 3 hours at 10 μM, and the metabolites were observed by LC/MS.

mice = experiment: Assessment of toxicity in vivo
Excerpt: The level of toxicity was rated on a scale of 0 (no observable adverse effect) to 3 (severe toxicity, almost fatal).

[3] = read-out: U-937 72 h IC50 (μM), Table 1, U-937 cells, 72 h
[4] = mice, scale 0 to 3, or time of death

Row | SMILES | Procaspase-3 (% Activity at […]) (procaspase-3) | IC50 [1, 3] | RLM 3 h % Stability [2] | Mouse Toxicity (mice; [4]) | also measured
1 | COc1ccc(CN2CCN(CC(=O)N/N=C/c3cc(C(C)(C)C)cc(C(C)(C)C)c3O)CC2)cc1 [3{2,7}] | 53 ± 4.1% |  |  |  | 
2 | COc1ccc(OC)c(CN2CCN(CC(=O)N/N=C/c3cc(C(C)(C)C)cc(C(C)(C)C)c3O)CC2)c1 [3{4,7}] | 64 ± 2.5% |  |  |  | 
3 | CC(C)(C)c1cc(/C=N/NC(=O)CN2CCN(Cc3ccc(OCc4ccccc4)cc3)CC2)c(O)c(C(C)(C)C)c1 [3{18,7}] | 36 ± 1.6% |  |  |  | 
4 | C=CCc1cccc(/C=N/NC(=O)CN2CCN(Cc3ccc(C(C)(C)C)cc3)CC2)c1O [3{20,24}, N′-(3-allyl-2-hydroxybenzylidene)-2-(4-(4-(tert-butyl)benzyl)piperazin-1-yl)acetohydrazide] | 82 ± 2.4% |  |  |  | 
5 | CC(C)(C)c1cc(/C=N/NC(=O)CN2CCN(Cc3ccc4ccccc4c3)CC2)c(O)c(C(C)(C)C)c1 [3{25,7}] | 69 ± 5.3% |  |  |  | 
6 | CCc1ccc(CN2CCN(CC(=O)N/N=C/c3cc(C(C)(C)C)cc(C(C)(C)C)c3O)CC2)cc1 [3{28,7}] | 60 ± 2.4% |  |  |  | 
7 | C=CCc1cc(F)cc(/C=N/NC(=O)CN2CCN(Cc3ccccc3)CC2)c1O [Compound 28, N′-(3-allyl-5-fluoro-2-hydroxybenzylidene)-2-(4-benzylpiperazin-1-yl)acetohydrazide] |  | 9.5 ± 0.9 µM | 56 ± 1% | death <24 h (the mice died either within 24 hours of treatment) | 
8 | C=CCc1cc(F)cc(/C=N/NC(=O)CN2CCN(C(=O)c3ccccc3)CC2)c1O [Compound 30, N′-(3-allyl-5-fluoro-2-hydroxybenzylidene)-2-(4-benzoylpiperazin-1-yl)acetohydrazide] |  | 8.6 ± 2 µM | 93 ± 7% | 2 | 
9 | C=CCc1cc(F)cc(/C=N/NC(=O)CN2CCN(C(=O)c3ccc(F)cc3)CC2)c1O [Compound 34, N′-(3-allyl-5-fluoro-2-hydroxybenzylidene)-2-(4-(4-fluorobenzoyl)piperazin-1-yl)acetohydrazide] |  | 8.5 ± 1.4 µM | 92 ± 3% | 3 | 
10 | CCCc1cc(F)cc(/C=N/NC(=O)CN2CCN(Cc3ccccc3)CC2)c1O [Compound 37, 2-(4-benzylpiperazin-1-yl)-N′-(5-fluoro-2-hydroxy-3-propylbenzylidene)acetohydrazide] |  | 8.9 ± 1.2 µM | 49 ± 6% | death <24 h (the mice died either within 24 hours of treatment) | 
11 | CCCc1cc(F)cc(/C=N/NC(=O)CN2CCN(C(=O)c3ccccc3)CC2)c1O [Compound 39, 2-(4-benzoylpiperazin-1-yl)-N′-(5-fluoro-2-hydroxy-3-propylbenzylidene)acetohydrazide] |  | 12.3 ± 1 µM | 86 ± 5% | 2 | 
12 | CCCc1cc(F)cc(/C=N/NC(=O)CN2CCN(C(=O)c3ccc(F)cc3)CC2)c1O [Compound 43, N′-(5-fluoro-2-hydroxy-3-propylbenzylidene)-2-(4-(4-fluorobenzoyl)piperazin-1-yl)acetohydrazide] |  | 7.5 ± 1.4 µM | 67 ± 3% | 3 | 
13 | C=CCc1cccc(/C=N/NC(=O)CN2CCN(Cc3ccccc3)CC2)c1O [PAC-1, Procaspase-Activating Compound 1, reference compound] | 42 ± 1.8% |  | 38 ± 2% |  | IC50 ([1]; U-937, 72 h, read-out: U-937 72 h IC50 (μM)): 10.2 ± 0.3 µM; Mouse Toxicity (mice; mouse, in vivo): 3
14 | C=CCc1cccc(/C=N/NC(=O)CN2CCN(Cc3ccc(S(N)(=O)=O)cc3)CC2)c1O [S-PAC-1, reference compound] | 4 ± 0.6% |  | reasonably stable |  | RLM 3 h % Stability ([2]; listed as 2 (S-PAC-1)): 84 ± 0%
